Laboratory results published in PMC11306024, “Novel metabolite madeirone and neomarinone extracted from Streptomyces aculeoletus as marine antibiofilm and antifouling agents” (Frontiers in Chemistry, 2024).
Like-named read-outs stand apart in the source and are kept apart here.

What was measured:
Daphnia magna = details: 100 µg/mL
Description: (§1) The in vivo evaluation of compounds (1) and (2) for acute toxicity was performed towards marine bacterium Aliivibrio fischeri, and planktonic crustacean Daphnia magna. The chronic ecotoxicity tests were evaluated using algae Pseudokirchneriella subcapitata and Phaeodactylum tricornutum.
The immobilization of D. magna at 24 h and 48 h was studied following a micro adaptation of the OECD Guideline 202 procedures (“Daphnia sp., Acute Immobilisation Test and Reproduction Test”), using the Daphtoxkit F (Microbiotests, Gent, Belgium). Firstly, the ISO matrix medium was prepared, aerated and adjusted to pH 7. Next, the neonate daphnids were incubated for 72 h at 20 ± 1°C with light and fed spirulina 2 h prior to use, according to the manufacturer’s instructions. […] For the miniaturization of the procedure, one daphnid neonate was exposed to each compound in 10 mL sterile tubes containing 2 mL of ISO matrix medium, with the compounds at the determined concentrations. The assays were performed in triplicate.

[1] = tested on: Pseudokirchneriella subcapitata; assay: Algal growth inhibition test (OECD 201); format: cell-based
Description: as §1
Freshwater and marine algal growth inhibition was assessed using P. subcapitata and P. tricornutum according to OECD Guideline 201 procedures (“Alga, Growth Inhibition Test”), ISO-8692 (“Water quality–Fresh water algal growth inhibition test with unicellular green algae”) and ISO-10253. Briefly, the algae cells were de-immobilized from algal beads using Matrix dissolving medium (Microbiotests), according to the manufacturer’s instructions, and grown in flasks containing algal culturing medium which was prepared following the OECD Guideline 201 and ISO-8692. Flasks with algae were kept for 7 days under light with orbital agitation. When the algae culture had sufficient cells, as verified by the optical density at 670 nm, these were tested at an initial cell density of 1 × 10^6 cells/mL in algal culturing medium. Madeirone (1) and neomarinone (2) were dissolved in DMSO and tested at the concentrations of 100, 50, 25, 12.5, 6.25, 3.13, and 1.56 μg/mL. The algae were cultured in microplates in triplicate and were kept for 4 days under light with orbital agitation. […] Each experiment was performed in triplicate and the results of two independent experiments with <10% SD are presented. Growth inhibition calculations were performed using cell numbers (biomass), as determined by a calibration line. Potassium dichromate (K2Cr2O7) was used as a positive control.

P. inhibens = assay: Antibiofilm activity (inhibition of biofilm formation); format: cell-based, Phaeobacter inhibens DSM 17395; details: for Biofilm inhibition, up to (highest over tested concentrations) P. inhibens: 0.98-31.25 µg/mL tested; for inhibition at 15.6 µg/mL: 15.60 µg/mL
Description: To assess antimicrofouling activity, we selected five marine bacterial species as models: Marinobacter hydrocarbonoclasticus DSM 8798 (ATCC 49840), C. marina DSM 4741, Phaeobacter inhibens DSM 17,395, Pseusooceanicola batsensis DSM 15,984, and Micrococcus luteus DSM 20030 (ATCC 4698) ([Michael et al., 2016]). These strains, sourced from DSMZ (Leibniz Institute DSMZ—German Collection of Microorganisms and Cell Cultures), were cultured in liquid marine broth (Carl Roth GmbH, Karlsruhe, Germany) with agitation at 180 rpm or on agar-supplemented marine broth. Incubation temperatures were set at 28°C for M. hydrocarbonoclasticus and Cobetia marina, 30°C for P. inhibens and P. batsensis, while M. luteus was maintained at 37°C in Brain Heart Infusion broth (BHI, Becton Dickinson, GmbH, Heidelberg, Germany) under similar agitation conditions.
The antibiofilm potential of compounds (1) and (2) against the five marine bacterial species was investigated in 96-well polystyrene flat-bottom microplates (Nunclon Delta Surface, Thermo Scientific, Roskilde, Denmark), as described previously ([Bauermeister et al., 2019]; [Pereira et al., 2020]). In the initial screening, bacterial overnight cultures were diluted to an OD600 of 0.2 and incubated statically at appropriate temperatures. The cultures were tested at 31.25, 15.60, 7.81, 3.91, 1.95, 0.98 μg/mL concentrations (2-fold serial dilutions) of compounds (1) and (2), solubilized in DMSO, or left untreated. After 24 h (M. hydrocarbonoclasticus, C. marina) or 48 h (P. batsensis, P. inhibens, M. luteus) incubation, OD600 was measured. The planktonic cells and media were discarded, and the wells were washed twice with deionized water. Biofilms were fixed, stained, and quantified by measuring the OD600 after solubilization with acetic acid. Biofilm inhibition percentages were calculated relative to untreated bacterial species, using DMSO as a negative control and CuSO4 (0.16 μg/mL), as a positive control. All assays were performed in triplicate, and the results represent the mean and standard error of the mean (SEM). Statistical analysis was conducted using GraphPad Prism 8.0.2, employing one-way ANOVA followed by Dunnett’s multiple comparisons test against the negative control.

Aliivibrio fischeri = assay: Inhibition of bioluminescence (ISO 11348-3 micro adaptation); format: cell-based; details: Aliivibrio fischeri
Description: as §1
The inhibition of bioluminescence of the marine bacterium A. fischeri, were studied following a micro adaptation of the standard procedure ISO 11348-3 (“Water Quality-Determination of the inhibitory effect of water samples on the light emission of Vibrio fischeri - Luminescent bacteria test–using freeze-dried bacteria method”). Briefly, frozen lyophilized bacterial cells (Abraxis, Warminster, PA, United States) were reconstituted in Reconstitution Solution, supplied by the manufacturer of the Abratox kit (Abraxis). Madeirone (1) and neomarinone (2) were dissolved in DMSO and tested at the concentrations of 100, 50, 25, 12.5, 6.25, 3.13, and 1.56 μg/mL. The emitted luminescence was measured using a luminometer at time 0 min and at different exposure times (5, 15 and 30 min) and the percentage of inhibition of bioluminescence was determined. Each experiment was performed in duplicate and the results of three independent experiments with <10% SD are presented. Phenol was used as a positive control.

SMILES	Inhibition (%) D. magna (immobilization) (Daphnia magna; listed as Neomarinone (2))	Inhibition (%) D. magna (immobilization) (Daphnia magna; listed as neomarinone (2))	Inhibition (%) P. subcapitata (growth) ([1]; 50 µg/mL)	Inhibition (%) P. subcapitata (growth) ([1]; 100 µg/mL)	Biofilm inhibition (%) P. inhibens (P. inhibens; 0.98 µg/mL, 48 h)	Biofilm inhibition (%) P. inhibens (P. inhibens; 1.95 µg/mL, 48 h)	Biofilm inhibition (%) P. inhibens (P. inhibens; 3.91 µg/mL, 48 h)	Biofilm inhibition, up to (highest over tested concentrations) P. inhibens (P. inhibens)	inhibition at 7.81 µg/mL (P. inhibens; Phaeobacter inhibens, 48 h)	inhibition at 15.6 µg/mL (P. inhibens; Phaeobacter inhibens, 48 h)	inhibition at 31.25 µg/mL (P. inhibens; Phaeobacter inhibens, 48 h)	Inhibition (%) A. fischeri (bioluminescence) (Aliivibrio fischeri; 50 µg/mL)	Inhibition (%) A. fischeri (bioluminescence) (Aliivibrio fischeri; 100 µg/mL)	Inhibition (%) P. subcapitata (growth) ([1]; 25 µg/mL)	inhibition at 3.91 µg/mL (P. inhibens; Phaeobacter inhibens, 3.91 µg/mL, 48 h)
CC1=CCC[C@@H](C)[C@]1(C)CC[C@@]1(C)c2c(O)cc3c(c2O[C@@H]1C)C(=O)C(C)=C(O)C3=O [compound 2, neomarinone]	33.0%	33%	9.7%	26.2%	N.I.	N.I.	N.I.	up to 41%	11.6 ± 1.8%	30 ± 0.6%	41.3 ± 0.9%	25.0%	37.3%	–	–
CC1=CCC[C@@H](C)[C@]1(C)CC[C@@]1(C)c2c(O)cc3c(c2O[C@@H]1C)C(=O)C=C(CO)C3=O (relative stereo) [compound 1, madeirone]	–	–	27.3%	52.8%	N.I.	N.I.	–	up to 66%	33.9 ± 1.3%	53 ± 1%	66.7 ± 0.3%	15.1%	49.2%	9.1%	10.2 ± 3.7%
